17 molecules from PubChem BioAssay AID686993 (Broad Institute, 2013) can be followed below.

Each structure is given as a SMILES string. Values joined by “and” are separate entries in the source; they are usually repeats but may differ in a detail not shown here. Identical values can stand only once. Inconclusive results are not listed. Active and inactive are the calls of the source.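 The calls were made as follows: active = compound whose fitted half-maximal inhibitory dose is at most twice its top valid dose in every replicate test; inconclusive = replicate test calls disagree with one another; inactive = all replicate tests inactive, including opposite-direction effects.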

One test has as its target UDP-N-acetylbacillosamine N-acetyltransferase PglD (Campylobacter jejuni). The test is described as follows: inhibition of C. jejuni PglD N-acetyltransferase – biochemical, DTNB absorbance, dry powder samples, set 4, dose response (AID 686993). As to conditions: purified PglD, DTNB absorbance 412 nm, CoA release.
For `Cc1c(C(=O)O)sc2nc(/C=C/c3ccc(N)nc3)[nH]c(=O)c12`, the half-maximal activity concentration (AC50) is 14.6 µM.

Take `Cc1c(C(=O)O)sc2nc(/C=C/c3ccccn3)[nH]c(=O)c12`: the concentration at half-maximal activity (AC50) is 2.58 µM.

For `Cc1c(C(=O)O)sc2nc(/C=C/c3ccc4[nH]ccc4c3)[nH]c(=O)c12`, the AC50 is 3.97 µM.

For the molecule `Cc1c(C(=O)O)sc2nc(/C=C/C=C/c3ccccc3)[nH]c(=O)c12`, the AC50 was 18.2 µM.

On to `Cc1c(C(=O)O)sc2nc(CCc3cccc(O)c3)[nH]c(=O)c12`, for which the AC50 is 8.28 µM.

Take `Cc1c(C(=O)O)sc2nc(/C=C/c3cccc(C(F)(F)F)c3)[nH]c(=O)c12`: the AC50 was 29.1 µM.

Consider `Cc1c(C(=O)O)sc2nc(/C=C/c3cccc(C(N)=O)c3)[nH]c(=O)c12`, for which the AC50 is 17.6 µM.

Regarding `Cc1c(C(=O)O)sc2nc(/C=C/c3ccc4cc[nH]c4c3)[nH]c(=O)c12`, the AC50 is 7.87 µM.

As for `Cc1c(C(=O)O)sc2nc(/C=C/c3ccc4ccccc4c3)[nH]c(=O)c12`, the concentration at half-maximal activity (AC50) was 30.5 µM.

Regarding `Cc1c(C(=O)O)sc2nc(/C=C/c3cc4ccccc4cn3)[nH]c(=O)c12`, the half-maximal activity concentration (AC50) was 4.54 µM.

Take `Cc1c(C(=O)O)sc2nc(/C=C/c3cccc(F)c3)[nH]c(=O)c12`: the AC50 is 7.23 µM.

For the molecule `Cc1c(C(=O)O)sc2nc(/C=C/c3cccc(O)c3)[nH]c(=O)c12`, the concentration at half-maximal activity (AC50) is 11.7 µM and 1.93 µM.

As to `Cc1c(C(=O)O)sc2nc(/C=C/c3ccccc3)[nH]c(=O)c12`, the half-maximal activity concentration (AC50) was 8.04 µM.

Still in this test, the particulars now being: purified PglD, DTNB absorbance 412 nm, CoA release; at 10 µM (top of the series).
On to `Cc1c(C(=O)O)sc2nc(/C=C/c3ccncc3)[nH]c(=O)c12`, for which the “activity change, negative = inhibition” value is “inactive”.

For `Cc1c(C(=O)O)sc2nc(/C=C/c3cnc4ccccc4c3)[nH]c(=O)c12`, the “activity change, negative = inhibition” value is “inactive”.

The test is the same for the next values; noted with them: purified PglD, DTNB absorbance 412 nm, CoA release; at 38 µM (top of the series).
Consider `Cc1c(C(=O)O)sc2nc(/C=C/c3ccnc4ccccc34)[nH]c(=O)c12`, for which the “activity change, negative = inhibition” value is “inactive”.

`Cc1c(C(=O)O)sc2nc(/C=C/C3CC3)[nH]c(=O)c12`: the “activity change, negative = inhibition” value is “inactive”.

With `Cc1c(C(=O)O)sc2nc(/C=C/c3cccc(O)c3)[nH]c(=O)c12`, the “activity change, negative = inhibition” value was “inactive”.

The AC50 is the midpoint of the concentration-response curve, whichever way the signal moves.
